Assay results reported in PubChem BioAssay AID2060613 (Molecular Pharmacology Branch, DTP, NCI, 2025).
Several values for one entry are separate records, joined by “and”; a condition that tells them apart may be missing. Equal values may be shown once.

System: 233499-124-R-J3-PDC complex spheroid viability
Assay: Anticancer human tumor 233499-124-R-J3-PDC patient-derived colon adenocarcinoma cell line growth inhibition [CLK]
Conditions: for viability, T/C: stronger effect = lower value
From the text: A high-throughput screen of multi-cell type tumor spheroids was designed to identify active combinations of […] and targeted small molecules. Complex spheroids include a stromal component modeled by human endothelial cells (HUVEC) and fibroblasts modeled by human mesenchymal stem cells (MSCs). The concentration ranges selected for each drug and investigational agent were based upon clinically achievable concentrations if the clinical Cmax of the agent was known.
Compounds. The drugs and investigational agents: cirtuvivint (SM08502; NSC835563), CC-671 (NSC850746), vemurafenib (NSC761431), tapotoclax (NSC804041), sotorasib (NSC818433), adagrasib (NSC831453), MRTX-1133 (NSC836407), BAY2416964 (NSC825713), copanlisib (NSC816437), inavolisib (NSC800729), abemaciclib (NSC768073), osimertinib (NSC779217), entinostat (NSC756642), eltanexor (KPT-8602, NSC794443), venetoclax (NSC766270), ceralasertib (NSC777638), bortezomib (NSC756655), olaparib (NSC753686), talazoparib (NSC767125), alisertib (NSC759677), peposertib (NSC802822), gemcitabine (NSC613327), 5-fluorouracil (NSC19893), SN-38 (NSC673596), oxaliplatin (NSC266046), paclitaxel (NSC125973), and doxorubicin (NSC123127), were obtained from the National Cancer Institute (NCI) Developmental Therapeutics Program Chemical Repository. The FDA-approved anticancer drug set is available from the Developmental Therapeutics Program at https://dtp.cancer.gov/organization/dscb/obtaining/available plates.htm. […] The stock solutions were prepared in dimethyl sulfoxide (DMSO, Sigma-Aldrich, St. Louis, MO, cat. D2650), except for the platinum complexes which were prepared in saline (Quality Biological, Gaithersburg, MD, cat. 114-055-101), at 800-fold the tested concentration and stored at -70 degrees C prior to their use. All drugs and investigational agents were tested over a range starting from a high concentration at or near the clinical Cmax and decreasing in half-log increments. If the clinical Cmax for an agent had not been determined, the highest concentration tested was 10 microM.
Cell Culture. All cells were maintained in an incubator at 37 degrees C and 5% CO2 with 95% humidity. The PDC lines were cultured according to standard operating procedures established by the NCI PDMR. Briefly, all PDCs were thawed and cultured in Matrigel-coated flasks prepared with a working solution of 1X Ham's F-12 nutrient mix, without supplementation (Invitrogen, Waltham, MA, cat. 11765054), 100 U/mL penicillin-streptomycin (Invitrogen, cat. 15140122), and 2.5% Matrigel (Corning Inc., Corning, NY, cat. 354248) for the first three passages. The 947758-054-R-J2-PDC line was cultured in 6B/Colon 1A media, which includes advanced DMEM/F-12 (Thermo Fisher Scientific, cat. 12634028), 10 mM HEPES (Thermo Fisher Scientific, cat. 15630080), 1X GlutaMAX supplement (Thermo Fisher Scientific, cat. 35050061), 0.1 mg/mL primocin (InvivoGen, cat. ant-pm-2), 10% defined fetal bovine serum, heat inactivated (HyClone Laboratories Inc., cat. SH30070.03HI), 1.25 mM N-Acetyl-L-cysteine (Sigma-Aldrich, cat. A9165), 10 mM nicotinamide (Sigma-Aldrich, cat. N0636), 1X B-27 supplement (Thermo Fisher Scientific, cat. 17504044), 1X N-2 supplement (Thermo Fisher Scientific, cat. 17502048), and 10 microM Y-27632 dihydrochloride (Tocris Bioscience, cat. 1254). The 876862-298-R-J1-PDC was cultured in 6E media, which includes all 6B/Colon 1A media components plus 50% L-WRN conditioned media (ATCC, cat. CRL-3276), 50 ng/mL recombinant human EGF recombinant protein (hEGF; Thermo Fisher Scientific, cat. PHG0311), 10 ng/mL recombinant human fibroblast growth factor 10 (hGFG-10; PeproTech, cat. 100-26), 1 ng/mL recombinant human fibroblast growth factor 2 (hFGF-2; PeproTech, cat. 100-18B), and 1 µM prostaglandin E2 (PGE2; Tocris, cat. 2296). The 227483-062-R1-J1-PDC line was cultured in Panc media, containing all 6E components except hFGF-2, with the addition of 500 nM SB-431542 (Selleckchem, cat. S1067) and 10 nM gastrin (Tocris, cat. 3006). […]

[1] = curve of first compound, second compound 0.0316 µM
[2] = curve of first compound, second compound 0.1 µM
[3] = curve of first compound, second compound 0.316 µM
[4] = curve of first compound, second compound 1 µM
[5] = curve of first compound, second compound 3.16 µM
[6] = curve of first compound, second compound 10 µM
[7] = second compound 0.0316 µM, first compound 0.0316 µM
[8] = second compound 0.0316 µM, first compound 0.1 µM
[9] = second compound 0.0316 µM, first compound 0.316 µM
[10] = second compound 0.0316 µM, first compound 1 µM
[11] = second compound 0.0316 µM, first compound 3.16 µM
[12] = second compound 0.0316 µM, first compound 10 µM
[13] = second compound 0.1 µM, first compound 0.0316 µM
[14] = second compound 0.1 µM, first compound 0.1 µM
[15] = second compound 0.1 µM, first compound 0.316 µM
[16] = second compound 0.1 µM, first compound 1 µM
[17] = second compound 0.1 µM, first compound 3.16 µM
[18] = second compound 0.1 µM, first compound 10 µM
[19] = second compound 0.316 µM, first compound 0.0316 µM
[20] = second compound 0.316 µM, first compound 0.1 µM
[21] = second compound 0.316 µM, first compound 0.316 µM
[22] = second compound 0.316 µM, first compound 1 µM
[23] = second compound 0.316 µM, first compound 3.16 µM
[24] = second compound 0.316 µM, first compound 10 µM
[25] = second compound 1 µM, first compound 0.0316 µM
[26] = second compound 1 µM, first compound 0.1 µM
[27] = second compound 1 µM, first compound 0.316 µM
[28] = second compound 1 µM, first compound 1 µM
[29] = second compound 1 µM, first compound 3.16 µM
[30] = second compound 1 µM, first compound 10 µM
[31] = second compound 3.16 µM, first compound 0.0316 µM
[32] = second compound 3.16 µM, first compound 0.1 µM
[33] = second compound 3.16 µM, first compound 0.316 µM
[34] = second compound 3.16 µM, first compound 1 µM
[35] = second compound 3.16 µM, first compound 3.16 µM
[36] = second compound 3.16 µM, first compound 10 µM
[37] = second compound 10 µM, first compound 0.0316 µM
[38] = second compound 10 µM, first compound 0.1 µM
[39] = second compound 10 µM, first compound 0.316 µM
[40] = second compound 10 µM, first compound 1 µM
[41] = second compound 10 µM, first compound 3.16 µM
[42] = second compound 10 µM, first compound 10 µM
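Further: spheroids exposed to the drug combinations for seven days.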
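Wherever viability, T/C is given: percent viability relative to DMSO vehicle control wells taken as 100%.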

CCCS(=O)(=O)Nc1ccc(F)c(C(=O)c2c[nH]c3ncc(-c4ccc(Cl)cc4)cc23)c1F + CNC(=O)c1ccc(Nc2nc(OC3CCCC3)c3c(-c4ccc5nc(C)oc5c4)c[nH]c3n2)c(OC)c1
IC50 [1]: > 10 µM
IC50 [2]: > 10 µM
IC50 [3]: 8.4 µM
IC50 [4]: 5.87 µM
IC50 [5]: 5.07 µM
IC50 [6]: 4.15 µM
viability, T/C [7]: 89.6%
viability, T/C [8]: 96.5%
viability, T/C [9]: 103%
viability, T/C [10]: 102%
viability, T/C [11]: 97.9%
viability, T/C [12]: 64.9%
viability, T/C [13]: 75.7%
viability, T/C [14]: 86.8%
viability, T/C [15]: 82.2%
viability, T/C [16]: 86.8%
viability, T/C [17]: 85.5%
viability, T/C [18]: 50%
viability, T/C [19]: 75.9%
viability, T/C [20]: 87.4%
viability, T/C [21]: 90.6%
viability, T/C [22]: 90.3%
viability, T/C [23]: 90.3%
viability, T/C [24]: 43.4%
viability, T/C [25]: 90.1%
viability, T/C [26]: 90.5%
viability, T/C [27]: 78.7%
viability, T/C [28]: 85.3%
viability, T/C [29]: 91%
viability, T/C [30]: 18%
viability, T/C [31]: 76.1%
viability, T/C [32]: 90.1%
viability, T/C [33]: 84.6%
viability, T/C [34]: 83.6%
viability, T/C [35]: 76.5%
viability, T/C [36]: 11.9%
viability, T/C [37]: 76.7%
viability, T/C [38]: 78.4%
viability, T/C [39]: 79.2%
viability, T/C [40]: 81.3%
viability, T/C [41]: 60.9%
viability, T/C [42]: 14.6%

CC(=O)O[C@H]1C(=O)[C@@]2(C)[C@H]([C@H](OC(=O)c3ccccc3)[C@]3(O)C[C@H](OC(=O)[C@H](O)[C@@H](NC(=O)c4ccccc4)c4ccccc4)C(C)=C1C3(C)C)[C@]1(OC(C)=O)CO[C@@H]1C[C@@H]2O
viability, T/C (compound 0.0316 µM): 63.2% and 74.1%
viability, T/C (compound 0.1 µM): 38.9% and 31.5%
viability, T/C (compound 0.316 µM): 19.9% and 8.71%
viability, T/C (compound 1 µM): 17.4% and 11%
viability, T/C (compound 3.16 µM): 20.4% and 9.09%
viability, T/C (compound 10 µM): 24.4% and 16.4%
IC50 (curve of compound): 0.0591 µM and 0.0607 µM

CC1(C)CCC(CN2CCN(c3ccc(C(=O)NS(=O)(=O)c4ccc(NCC5CCOCC5)c([N+](=O)[O-])c4)c(Oc4cnc5[nH]ccc5c4)c3)CC2)=C(c2ccc(Cl)cc2)C1 + CNC(=O)c1ccc(Nc2nc(OC3CCCC3)c3c(-c4ccc5nc(C)oc5c4)c[nH]c3n2)c(OC)c1
IC50 [1]: 6.79 µM
IC50 [2]: 3.35 µM
IC50 [3]: 3.14 µM
IC50 [4]: 4.67 µM
IC50 [5]: 2.87 µM
IC50 [6]: 4.47 µM
viability, T/C [7]: 79.5%
viability, T/C [8]: 96.9%
viability, T/C [9]: 94.3%
viability, T/C [10]: 106%
viability, T/C [11]: 96.5%
viability, T/C [12]: 27.2%
viability, T/C [13]: 68.9%
viability, T/C [14]: 70.2%
viability, T/C [15]: 85%
viability, T/C [16]: 76.2%
viability, T/C [17]: 51.6%
viability, T/C [18]: 20.8%
viability, T/C [19]: 76.4%
viability, T/C [20]: 79.6%
viability, T/C [21]: 81.3%
viability, T/C [22]: 76.8%
viability, T/C [23]: 49.9%
viability, T/C [24]: 25.1%
viability, T/C [25]: 74.3%
viability, T/C [26]: 90%
viability, T/C [27]: 72.1%
viability, T/C [28]: 68.4%
viability, T/C [29]: 60.1%
viability, T/C [30]: 33.5%
viability, T/C [31]: 77.1%
viability, T/C [32]: 66.5%
viability, T/C [33]: 76%
viability, T/C [34]: 76.6%
viability, T/C [35]: 47.8%
viability, T/C [36]: 24.2%
viability, T/C [37]: 70.1%
viability, T/C [38]: 71.9%
viability, T/C [39]: 76.8%
viability, T/C [40]: 74.9%
viability, T/C [41]: 59%
viability, T/C [42]: 29.2%

C#Cc1c(F)ccc2cc(O)cc(-c3ncc4c(N5CC6CCC(C5)N6)nc(OCC56CCCN5CC(F)C6)nc4c3F)c12 (stereo not drawn) + CN1CCN(c2cc(C(=O)Nc3cc4cc(-c5cnn(C)c5)ccc4cn3)ccn2)CC1
IC50 [1]: > 10 µM
IC50 [2]: > 10 µM
IC50 [3]: > 10 µM
IC50 [4]: < 0.0316 µM
IC50 [5]: < 0.0316 µM
IC50 [6]: < 0.0316 µM
viability, T/C [7]: 80.6%
viability, T/C [8]: 96.9%
viability, T/C [9]: 92.9%
viability, T/C [10]: 91.9%
viability, T/C [11]: 98.1%
viability, T/C [12]: 76.8%
viability, T/C [13]: 87.4%
viability, T/C [14]: 99.8%
viability, T/C [15]: 109%
viability, T/C [16]: 94.1%
viability, T/C [17]: 85.7%
viability, T/C [18]: 71.4%
viability, T/C [19]: 90.7%
viability, T/C [20]: 92%
viability, T/C [21]: 102%
viability, T/C [22]: 98.5%
viability, T/C [23]: 81.9%
viability, T/C [24]: 66.4%
viability, T/C [25]: 3.8%
viability, T/C [26]: 4.61%
viability, T/C [27]: 1.85%
viability, T/C [28]: 9.57%
viability, T/C [29]: 2.33%
viability, T/C [30]: 1.27%
viability, T/C [31]: 0.59%
viability, T/C [32]: 0.56%
viability, T/C [33]: 0.97%
viability, T/C [34]: 0.63%
viability, T/C [35]: 1.43%
viability, T/C [36]: 0.5%
viability, T/C [37]: 0.45%
viability, T/C [38]: 0.45%
viability, T/C [39]: 0.43%
viability, T/C [40]: 0.39%
viability, T/C [41]: 0.39%
viability, T/C [42]: 0.8%
